Experimental findings from ChEMBL document CHEMBL5715954, “Silencing c-Myc translation as a therapeutic strategy through targeting PI3Kδ and CK1ε in hematological malignancies” (Blood, 2017) are described below.

Common to all, as to design: scale not given: the % may be the effect or the level left
Assay [1] addresses T1, G protein-coupled receptor kinase 3 (Homo sapiens) (UniProt P35626).
T1 sequence (whole entry): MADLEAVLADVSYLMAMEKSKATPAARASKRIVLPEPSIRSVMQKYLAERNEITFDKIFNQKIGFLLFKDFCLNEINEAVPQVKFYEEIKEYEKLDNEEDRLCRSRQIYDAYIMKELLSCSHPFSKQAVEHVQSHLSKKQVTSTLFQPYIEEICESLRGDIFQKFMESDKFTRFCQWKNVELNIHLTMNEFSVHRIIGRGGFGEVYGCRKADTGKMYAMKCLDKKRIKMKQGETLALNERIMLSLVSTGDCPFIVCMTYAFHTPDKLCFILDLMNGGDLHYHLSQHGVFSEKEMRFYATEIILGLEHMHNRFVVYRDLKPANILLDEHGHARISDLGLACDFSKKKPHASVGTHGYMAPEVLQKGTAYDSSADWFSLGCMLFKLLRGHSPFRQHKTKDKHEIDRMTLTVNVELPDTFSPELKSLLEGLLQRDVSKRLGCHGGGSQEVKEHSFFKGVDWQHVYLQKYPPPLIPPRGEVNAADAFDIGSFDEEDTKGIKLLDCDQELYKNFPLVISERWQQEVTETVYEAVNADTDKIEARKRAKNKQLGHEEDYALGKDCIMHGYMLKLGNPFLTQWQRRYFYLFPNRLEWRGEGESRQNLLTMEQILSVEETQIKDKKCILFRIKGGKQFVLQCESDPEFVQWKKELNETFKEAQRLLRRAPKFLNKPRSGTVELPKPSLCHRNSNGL
Nature of the assay: Inhibition of human GRK3 assessed as enzyme activity at 1 uM using casein as substrate preincubated for 20 mins followed by [gamma-33P]-ATP addition and measured after 120 mins by radiometric Hot-SpotSM Kinase assay relative to control.

Assay [2] has as its target T2, Serine/threonine-protein kinase LATS2 (Homo sapiens) (UniProt Q9NRM7).
T2 sequence (whole entry): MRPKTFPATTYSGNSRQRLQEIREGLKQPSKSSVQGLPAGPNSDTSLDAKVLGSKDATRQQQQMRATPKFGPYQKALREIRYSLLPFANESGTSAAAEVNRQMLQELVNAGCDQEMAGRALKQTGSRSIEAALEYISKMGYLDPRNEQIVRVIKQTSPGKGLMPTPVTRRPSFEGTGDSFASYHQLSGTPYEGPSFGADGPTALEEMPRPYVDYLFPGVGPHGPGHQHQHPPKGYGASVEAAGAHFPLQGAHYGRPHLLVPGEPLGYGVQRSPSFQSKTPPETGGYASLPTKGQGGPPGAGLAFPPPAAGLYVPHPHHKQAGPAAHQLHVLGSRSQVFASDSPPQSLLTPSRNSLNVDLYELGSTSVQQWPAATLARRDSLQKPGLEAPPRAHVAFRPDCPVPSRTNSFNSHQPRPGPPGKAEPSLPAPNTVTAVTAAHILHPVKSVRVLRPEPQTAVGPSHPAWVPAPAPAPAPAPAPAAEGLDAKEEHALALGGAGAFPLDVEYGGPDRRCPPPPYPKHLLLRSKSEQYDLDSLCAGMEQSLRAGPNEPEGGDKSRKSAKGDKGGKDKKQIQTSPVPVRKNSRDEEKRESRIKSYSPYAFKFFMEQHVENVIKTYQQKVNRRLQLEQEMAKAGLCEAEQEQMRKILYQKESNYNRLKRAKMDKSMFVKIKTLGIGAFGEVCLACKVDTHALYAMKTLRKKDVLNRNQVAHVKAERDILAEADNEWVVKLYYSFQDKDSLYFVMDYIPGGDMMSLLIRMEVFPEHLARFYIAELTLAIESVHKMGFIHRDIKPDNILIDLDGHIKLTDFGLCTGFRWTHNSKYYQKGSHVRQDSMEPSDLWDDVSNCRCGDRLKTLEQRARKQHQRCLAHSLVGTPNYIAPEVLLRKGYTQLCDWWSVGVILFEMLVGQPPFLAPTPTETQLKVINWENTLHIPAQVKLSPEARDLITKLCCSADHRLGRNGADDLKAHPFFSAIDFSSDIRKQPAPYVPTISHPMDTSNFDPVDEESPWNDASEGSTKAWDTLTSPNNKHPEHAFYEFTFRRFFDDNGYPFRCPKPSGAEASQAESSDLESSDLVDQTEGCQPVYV
Nature of the assay: Inhibition of human LATS2 assessed as enzyme activity at 1 uM using KKRNRRLSVA as substrate preincubated for 20 mins followed by [gamma-33P]-ATP addition and measured after 120 mins by radiometric Hot-SpotSM Kinase assay relative to control.

Assay [3] has as its target T3, Serine/threonine-protein kinase tousled-like 1 (Homo sapiens) (UniProt Q9UKI8).
T3 sequence (whole entry): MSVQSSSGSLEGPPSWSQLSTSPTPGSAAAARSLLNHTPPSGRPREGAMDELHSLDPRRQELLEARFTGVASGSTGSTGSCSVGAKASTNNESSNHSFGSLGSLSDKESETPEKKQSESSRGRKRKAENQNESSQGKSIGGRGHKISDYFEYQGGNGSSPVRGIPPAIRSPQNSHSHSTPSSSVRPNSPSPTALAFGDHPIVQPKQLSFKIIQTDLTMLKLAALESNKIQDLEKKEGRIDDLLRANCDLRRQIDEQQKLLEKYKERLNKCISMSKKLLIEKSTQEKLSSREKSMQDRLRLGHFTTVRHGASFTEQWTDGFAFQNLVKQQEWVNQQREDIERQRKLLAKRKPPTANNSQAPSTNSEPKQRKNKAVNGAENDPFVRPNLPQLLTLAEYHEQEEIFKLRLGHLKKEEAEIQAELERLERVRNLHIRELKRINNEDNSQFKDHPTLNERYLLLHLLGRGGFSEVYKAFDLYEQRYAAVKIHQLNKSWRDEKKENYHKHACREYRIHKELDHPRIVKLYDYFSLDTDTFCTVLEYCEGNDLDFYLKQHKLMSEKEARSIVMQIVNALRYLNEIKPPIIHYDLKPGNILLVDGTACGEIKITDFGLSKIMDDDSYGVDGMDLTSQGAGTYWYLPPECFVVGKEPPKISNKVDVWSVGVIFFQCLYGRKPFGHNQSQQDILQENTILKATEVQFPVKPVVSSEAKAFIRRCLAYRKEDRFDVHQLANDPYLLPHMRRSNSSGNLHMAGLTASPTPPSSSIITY
Put plainly: Inhibition of human TLK1 assessed as enzyme activity at 1 uM using histone H3 as substrate preincubated for 20 mins followed by [gamma-33P]-ATP addition and measured after 120 mins by radiometric Hot-SpotSM Kinase assay relative to control.

The target in assay [4] is Serine/threonine-protein kinase 24 (Homo sapiens) (UniProt Q9Y6E0). Put plainly: Inhibition of human MST3 assessed as enzyme activity at 1 uM using myelin basic protein as substrate preincubated for 20 mins followed by [gamma-33P]-ATP addition and measured after 120 mins by radiometric Hot-SpotSM Kinase assay relative to control.
For assay [5], the target named is Fibroblast growth factor receptor 3 (Homo sapiens) (UniProt P22607). Nature of the assay: Inhibition of human FGFR3 assessed as enzyme activity at 1 uM using poly[Glu:Tyr] (4:1) as substrate preincubated for 20 mins followed by [gamma-33P]-ATP addition and measured after 120 mins by radiometric Hot-SpotSM Kinase assay relative to control.
Chain of Fibroblast growth factor receptor 3 (Homo sapiens) (P22607 23-806 limits assumed): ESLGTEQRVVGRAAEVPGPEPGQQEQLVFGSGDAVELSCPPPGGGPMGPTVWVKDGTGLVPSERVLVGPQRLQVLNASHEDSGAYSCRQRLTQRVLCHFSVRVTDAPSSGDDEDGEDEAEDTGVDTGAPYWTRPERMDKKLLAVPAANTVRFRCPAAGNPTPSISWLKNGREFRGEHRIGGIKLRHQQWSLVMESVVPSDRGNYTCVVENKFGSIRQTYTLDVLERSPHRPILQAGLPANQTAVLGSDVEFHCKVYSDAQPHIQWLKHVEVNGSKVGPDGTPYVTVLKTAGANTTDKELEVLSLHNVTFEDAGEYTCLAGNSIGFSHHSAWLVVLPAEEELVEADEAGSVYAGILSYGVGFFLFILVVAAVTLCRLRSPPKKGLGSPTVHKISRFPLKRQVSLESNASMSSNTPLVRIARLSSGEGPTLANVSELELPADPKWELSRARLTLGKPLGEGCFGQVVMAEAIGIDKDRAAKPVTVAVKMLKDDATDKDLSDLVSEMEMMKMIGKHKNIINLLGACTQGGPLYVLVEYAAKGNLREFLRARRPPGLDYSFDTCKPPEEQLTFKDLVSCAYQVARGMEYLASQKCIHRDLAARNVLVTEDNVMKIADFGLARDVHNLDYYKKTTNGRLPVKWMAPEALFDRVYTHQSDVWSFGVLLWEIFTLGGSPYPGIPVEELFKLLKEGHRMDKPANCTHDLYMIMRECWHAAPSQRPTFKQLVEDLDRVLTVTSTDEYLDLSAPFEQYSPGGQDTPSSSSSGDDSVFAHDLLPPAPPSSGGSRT

Chain of Serine/threonine-protein kinase 24 (Homo sapiens) (Q9Y6E0 whole entry, looked up): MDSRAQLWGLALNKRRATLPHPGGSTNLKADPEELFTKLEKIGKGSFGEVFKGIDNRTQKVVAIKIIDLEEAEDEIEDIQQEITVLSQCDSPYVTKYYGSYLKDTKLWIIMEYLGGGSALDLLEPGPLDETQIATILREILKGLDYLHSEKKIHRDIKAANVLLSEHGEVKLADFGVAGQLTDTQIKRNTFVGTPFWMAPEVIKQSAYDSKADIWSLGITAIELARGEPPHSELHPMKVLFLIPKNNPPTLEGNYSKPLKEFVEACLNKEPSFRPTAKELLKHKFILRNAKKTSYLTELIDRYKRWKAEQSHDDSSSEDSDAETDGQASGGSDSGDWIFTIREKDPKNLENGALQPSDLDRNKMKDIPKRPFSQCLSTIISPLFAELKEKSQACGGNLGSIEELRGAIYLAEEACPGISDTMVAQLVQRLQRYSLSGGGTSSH

`C[C@H](Nc1ncnc2nc[nH]c12)c1cc2cccc(Cl)c2c(=O)n1-c1ccccc1`: the Activity in assay [1] was 91.5%; in assay [2] it was 91.9%; in assay [3] it was 105%; in assay [4], 87.3%; in assay [5] it was 93.2%.

As to `CC[C@H](Nc1ncnc2[nH]cnc12)c1nc2cccc(F)c2c(=O)n1-c1ccccc1`, the Activity in assay [1] worked out at 95.3%; in assay [2], 91.5%; in assay [3], 100%; in assay [4], 88.2%; in assay [5], 88.8%.

On to `CC(C)Oc1ccc(-c2nn([C@@H](C)c3oc4ccc(F)cc4c(=O)c3-c3cccc(F)c3)c3ncnc(N)c23)cc1F` [UMBRALISIB], for which the Activity is 99.6% in assay [1]; 103% in assay [2]; 102% in assay [3]; 81.6% in assay [4]; 94.3% in assay [5].
